Data: ChEMBL document CHEMBL4732150 (J Med Chem, 2021)
Active and inactive are the calls of the source. No cut-off for these calls is given here.

Tests used:
A-431 = assay: Antiproliferative activity against human A-431 cells assessed as reduction in cell viability incubated for 72 hrs by sulforhodamine B assay; format: functional, cell-based; settings: A-431, 72 h
NCI-H1975 = assay: Antiproliferative activity against human NCI-H1975 cells assessed as reduction in cell viability incubated for 72 hrs by sulforhodamine B assay; format: functional, cell-based; settings: NCI-H1975, 72 h
[1] = Selectivity ratio of IC50 for antiproliferative activity against human A-431 cells to IC50 for antiproliferative activity against human NCI-H1975 cells; format: functional
BaF3 [2] = assay: Antitumor activity against mouse BAF3 cells harboring EGFR del19/T790M mutant xenografted in Balb/c nude mouse assessed as suppression of tumor growth at 3 to 5 mg/kg, po QD administered via gavage for 18 days relative to control; format: functional, organism-based; settings: dose 3-5 mg/kg, time 18.0 day, tested as the 2H-labelled form
[3] = Toxicity in Balb/c nude mouse xenografted with human NCI-H1975 cells harboring EGFR L858R/T790M mutant assessed as change in body weight at 1.5 to 2.5 mg/kg, po QD administered via gavage for 24 days and measured twice weekly; format: organism-based; settings: in vivo, 576 h, dose 1.5-2.5 mg/kg, time 24 day
[4] = Half life in CD1 mouse liver microsomes preincubated for 10 mins under shaking condition followed by NADPH generating system addition and measured up to 60 mins by LC-MS/MS analysis
[5] = Half life in Sprague-Dawley rat liver microsomes preincubated for 10 mins under shaking condition followed by NADPH generating system addition and measured up to 20 mins by LC-MS/MS analysis
[6] = Half life in Beagle dog liver microsomes preincubated for 10 mins under shaking condition followed by NADPH generating system addition and measured up to 60 mins by LC-MS/MS analysis
[7] = Half life in cynomolgus monkey liver microsomes preincubated for 10 mins under shaking condition followed by NADPH generating system addition and measured up to 60 mins by LC-MS/MS analysis
[8] = Intrinsic clearance in CD1 mouse liver microsomes preincubated for 10 mins under shaking condition followed by NADPH generating system addition and measured up to 60 mins by LC-MS/MS analysis; format: ADME, Microsome; settings: 1 h, time <=70 min
[9] = Intrinsic clearance in Sprague-Dawley rat liver microsomes preincubated for 10 mins under shaking condition followed by NADPH generating system addition and measured up to 60 mins by LC-MS/MS analysis; format: ADME, Microsome; settings: 1 h, time <=70 min
[10] = Intrinsic clearance in Beagle dog liver microsomes preincubated for 10 mins under shaking condition followed by NADPH generating system addition and measured up to 60 mins by LC-MS/MS analysis; format: ADME, Canis lupus familiaris, Microsome; settings: 1 h, time <=70 min
[11] = Intrinsic clearance in cynomolgus monkey liver microsomes preincubated for 10 mins under shaking condition followed by NADPH generating system addition and measured up to 60 mins by LC-MS/MS analysis; format: ADME, Macaca fascicularis, Microsome; settings: 1 h, time <=70 min
[12] = Intrinsic clearance in human liver microsomes preincubated for 10 mins under shaking condition followed by NADPH generating system addition and measured up to 60 mins by LC-MS/MS analysis; format: ADME, Microsome; settings: 1 h, time <=70 min
[13] = Cmax in Sprague-Dawley rat assessed as AZ5104 at 6 mg/kg/day, IG administered as single dose and measured up to 24 hrs by LC-MS/MS analysis; format: ADME, organism-based; design: route […], dose 6 mg/kg/day, time <=24; settings: in vivo, po
[14] = Tmax in Sprague-Dawley rat assessed as AZ5104 at 6 mg/kg/day, IG administered as single dose and measured up to 24 hrs by LC-MS/MS analysis; format: ADME, organism-based; settings: in vivo, po
[15] = Cmax in Sprague-Dawley rat at 6 mg/kg/day, IG administered as single dose and measured up to 24 hrs by LC-MS/MS analysis; format: ADME, organism-based; design: route […], dose 6 mg/kg/day, time <=24; settings: in vivo, po
[16] = Apparent oral clearance in Sprague-Dawley rat at 6 mg/kg/day, IG administered as single dose and measured up to 24 hrs by LC-MS/MS analysis; format: ADME, organism-based; settings: in vivo
BaF3 [17] = assay: cells; settings: Mus musculus, BaF3, 72 h
BaF3 [18] = assay: cells; settings: Mus musculus, BaF3, 72 h; remark: listed apart in the source
in vivo = settings: Sprague-Dawley, rat, po, 6 mg/kg
in vitro = settings: human, liver microsomes

| IC50 (A-431) | IC50 (NCI-H1975) | Compound | Ratio IC50 [1] | further results |
| --- | --- | --- | --- | --- |
| 1.06 µM | 0.147 µM | C=C(Br)C(=O)Nc1cc(Nc2nccc(-c3cn(C)c4ccccc34)n2)c(OC)cc1N(C)CCN(C)C | 7 | – |
| 11.2 µM | 0.546 µM | C=C(C(=O)Nc1cc(Nc2nccc(-c3cn(C)c4ccccc34)n2)c(OC)cc1N(C)CCN(C)C)C(F)(F)F | 21 | – |
| 2.5 µM | 0.208 µM | C=C(F)C(=O)Nc1cc(Nc2nccc(-c3cn(C)c4ccccc34)n2)c(OC)cc1N(C)CCN(C)C | 12 | – |
| 5.34 µM | 0.486 µM | C=C(C)C(=O)Nc1cc(Nc2nccc(-c3cn(C)c4ccccc34)n2)c(OC)cc1N(C)CCN(C)C | 11 | – |
| 1.55 µM | 0.241 µM | C=C(Cl)C(=O)Nc1cc(Nc2nccc(-c3cn(C)c4ccccc34)n2)c(OC)cc1N(C)CCN(C)C | 6 | – |
| 5.79 µM | 0.496 µM | C/C=C/C(=O)Nc1cc(Nc2nccc(-c3cn(C)c4ccccc34)n2)c(OC)cc1N(C)CCN(C)C | 12 | – |

| Compound | IC50 (A-431) | IC50 (NCI-H1975) | Ratio IC50 [1] | further results |
| --- | --- | --- | --- | --- |
| C=CC(=O)Nc1cc(Nc2nccc(-c3cn(C)c4ccccc34)n2)c(OC)cc1N(C)CCN(C)C [OSIMERTINIB] | […] | – | – | Activity (BaF3 [2]): Active; Activity [3]: Toxic; half-life at 1 h [4]: 22.3 min; half-life at 20 min [5]: 36.8 min; half-life at 1 h [6]: 26.1 min; half-life at 1 h [7]: […]; CLint [8]: 62.1 µL/min/mg; CLint [9]: 37.6 µL/min/mg; CLint [10]: 53.2 µL/min/mg; CLint [11]: 41.7 µL/min/mg; CLint [12]: 8.1 µL/min/mg; Cmax [13]: 0.0064 µM; Tmax [14]: 380 min; Cmax [15]: 0.145 µM; CL/F [16]: 18.8 L/h/kg; IC50 (BaF3 [17]): 0.0215 µM; IC50 (BaF3 [18]): 0.004 µM; half-life at 24 h (in vivo): 227 min; half-life at 1 h (in vitro): […] |
| [2H]C([2H])=CC(=O)Nc1cc(Nc2nccc(-c3cn(C([2H])([2H])[2H])c4ccccc34)n2)c(OC)cc1N(C)CCN(C)C | […] | […] | – | IC50 (BaF3 [17]): 0.018 µM; IC50 (BaF3 [18]): 0.0035 µM |
